IC50 data for nine molecules are collected here from US12421223B2, “Compounds and compositions for treating conditions associated with NLRP activity” (Novartis AG, priority 2018, dated 2025).

This assay concerns IL-1β production in PMA-differentiated THP-1 cells. In words: IL-1β production in PMA-differentiated THP-1 cells stimulated with gramicidin (hTHP-1 assay, 2% fetal bovine serum). It is filed as cell-based. The conditions noted are these: Homo sapiens, hTHP-1 assay containing 2% fetal bovine serum, gramicidin 5 μM, IL-1β by HTRF, read-out: THP-1 IC50 (Average IC50 of compounds in hTHP-1 assay). The protocol: The following protocol is suitable for testing the activity of the compounds disclosed herein.
Procedure 1: IL-1β Production in PMA-Differentiated THP-1 Cells Stimulated with Gramicidin.
THP-1 cells were purchased from the American Type Culture Collection and sub-cultured according to instructions from the supplier. Cells were cultured in complete RPMI 1640 (containing 10% heat inactivated FBS, penicillin (100 units/ml) and streptomycin (100 μg/ml)), and maintained in log phase prior to experimental setup. Prior to the experiment, compounds were dissolved in dimethyl sulfoxide (DMSO) to generate a 30 mM stock. The compound stock was first pre-diluted in DMSO to 3, 0.34, 0.042 and 0.0083 mM intermediate concentrations and subsequently spotted using Echo550 liquid handler into an empty 384-well assay plate to achieve desired final concentration (e.g. 100, 33, 11, 3.7, 1.2, 0.41, 0.14, 0.046, 0.015, 0.0051, 0.0017 μM). DMSO was backfilled in the plate to achieve a final DMSO assay concentration of 0.37%. The plate was then sealed and stored at room temperature until required.
THP-1 cells were treated with PMA (Phorbol 12-myristate 13-acetate) (20 ng/ml) for 16-18 hours. On the day of the experiment the media was removed and adherent cells were detached with trypsin for 5 minutes. Cells were then harvested, washed with complete RPMI 1640, spun down, and resuspended in RPMI 1640 (containing 2% heat inactivated FBS, penicillin (100 units/ml) and streptomycin (100 μg/ml). The cells were plated in the 384-well assay plate containing the spotted compounds at a density of 50,000 cells/well (final assay volume 50 μl). Cells were incubated with compounds for 1 hour and then stimulated with gramicidin (5 μM) (Enzo) for 2 hours. Plates were then centrifuged at 340 g for 5 min. Cell free supernatant (40 μL) was collected using a 96-channel PlateMaster (Gilson) and the production of IL-1β was evaluated by HTRF (cisbio). The plates were incubated for 18 h at 4° C. and read using the preset HTRF program (donor emission at 620 nm, acceptor emission at 668 nm) of the SpectraMax i3x spectrophotometer (Molecular Devices, software SoftMax 6). A vehicle only control and a dose titration of CRID3 (100-0.0017 μM) were run concurrently with each experiment.
Procedure 2: IL-1β Production in PMA-Differentiated THP-1 Cells Stimulated with Gramicidin.
THP-1 cells were purchased from the American Type Culture Collection and sub-cultured according to instructions from the supplier. Prior to experiments, cells were cultured in complete RPMI 1640 (containing 10% heat inactivated FBS, penicillin (100 units/ml) and streptomycin (100 μg/ml)), and maintained in log phase prior to experimental setup. Prior to the experiment THP-1 were treated with PMA (Phorbol 12-myristate 13-acetate) (20 ng/ml) for 16-18 hours. Compounds were dissolved in dimethyl sulfoxide (DMSO) to generate a 30 mM stock. On the day of the experiment the media was removed and adherent cells were detached with trypsin for 5 minutes. Cells were then harvested, washed with complete RPMI 1640, spun down, resuspended in RPMI 1640 (containing 2% heat inactivated FBS, penicillin (100 units/ml) and streptomycin (100 μg/ml). The cells were plated in a 384-well plate at a density of 50,000 cells/well (final assay volume 50 μl). Compounds were first dissolved in assay medium to obtain a 5× top concentration of 500 μM. 10 step dilutions (1:3) were then undertaken in assay medium containing 1.67% DMSO. 5× compound solutions were added to the culture medium to achieve desired final concentration (e.g. 100, 33, 11, 3.7, 1.2, 0.41, 0.14, 0.046, 0.015, 0.0051, 0.0017 μM). Final DMSO concentration was at 0.37%. Cells were incubated with compounds for 1 hour and then stimulated with gramicidin (5 μM) (Enzo) for 2 hours. Plates were then centrifuged at 340 g for 5 min. Cell free supernatant (40 μL) was collected using a 96-channel PlateMaster (Gilson) and the production of IL-1β was evaluated by HTRF (cisbio). […]
In general terms: TR-FRET usually uses a lanthanide donor and a delayed reading to cut background.

Each structure is given as a SMILES string.

The IC50 is the concentration at which inhibition is half-maximal. Turning to `CC(C)(O)c1ncc([C@@H](NC(=O)OCc2ccccc2)c2ccn(-c3c4c(cc5c3CCC5)CCC4)n2)s1` (single isomer, unassigned) [Compound 116], the IC50 lay within 5 to 30 µM.

For `CC(C)(O)c1ncc(C(CNC(=O)OCc2ccccc2)c2cnn(-c3c4c(cc5c3CCC5)CCC4)c2)s1` (stereo not drawn) [Compound 101, Benzyl (2-(1-(1,2,3,5,6,7-hexahydro-s-indacen-4-yl)-1H-pyrazol-4-yl)-2-(2-(2-hydroxypropan-2-yl)thiazol-5-yl)ethyl) carbamate], the IC50 was 1 to 5 µM.

Consider `CC(C)(O)c1ncc(C(NC(=O)OCc2ccccc2)c2ccn(-c3c4c(cc5c3CCC5)CCC4)n2)s1` (stereo not drawn) [Compound 102, Benzyl (1-(1,2,3,5,6,7-hexahydros-indacen-4-yl)-1H-pyrazol-3-yl)(2-(2-hydroxypropan-2-yl)thiazol-5-yl)methylcarbamate], for which the IC50 was 5 to 30 µM.

In the case of `CC(C)(O)c1ncc(C(=O)c2ccnn2-c2c3c(cc4c2CCC4)CCC3)s1` [Compound 103], the half-inhibitory concentration (IC50) was in the range of 5 to 30 µM.

With `CC(C)(O)c1cnc(S(=O)(=O)c2cnn(-c3c4c(cc5c3CCC5)CCC4)c2)s1` [Compound 104, 2-(2-((1-(1,2,3,5,6,7-hexahydro-s-indacen-4-yl)-1H-pyrazol-4-yl)sulfonyl)thiazol-5-yl)propan-2-ol], the IC50 lay in the range of 5 to 30 µM.

In the case of `CC(C)(O)c1ncc(C(CNC(=O)c2ccccc2)c2cnn(-c3c4c(cc5c3CCC5)CCC4)c2)s1` (stereo not drawn) [Compound 114], the IC50 lay in the range of 5 to 30 µM.

`CC(C)(O)c1ncc(S(=O)(=O)c2cnn(-c3c4c(cc5c3CCC5)CCC4)c2)s1` [Compound 115, 2-(5-((1-(1,2,3,5,6,7-hexahydro-s-indacen-4-yl)-1H-pyrazol-4-yl)sulfonyl)thiazol-2-yl)propan-2-ol]: the IC50 fell in the range of 5 to 30 µM.

Consider `CC(C)(O)c1ncc(C(=O)c2ccn(-c3c4c(cc5c3CCC5)CCC4)n2)s1` [Compound 118], for which the half-maximal inhibitory concentration (IC50) fell in the range of 5 to 30 µM.

For `O=C(NCc1cnn(-c2c3c(cc4c2CCC4)CCC3)c1)OCc1ccccc1` [Compound 200, Benzyl ((1-(1,2,3,5,6,7-hexahydro-s-indacen-4-yl)-1H-pyrazol-4-yl)methyl)carbamate], the IC50 was in the range of 5 to 30 µM.
